Results taken from patent publication US9675714B1, “Graphene based theranostics for tumor targeted drug/gene delivery and imaging” (University of South Florida, priority 2013, dated 2017).

System: A549 lung cancer cells
Assay: Cellular uptake and intracellular drug release by confocal laser scanning microscopy
Format: cell-based
Details: 20 h incubation
Description: FIGS. 15A-15F show confocal microscopic images of A549cells after 20 h incubation with doxorubicin (15A-15C) or doxorubicin-CMG nanoparticles (15D-15F). […] Nuclei were stained with DAPI as a control (15A and […]). DAPI and doxorubicin images were merged for comparison (15C-15F).
To test the drug delivery capacity of CMG NPs, DOX was loaded into CMG nanoparticles by physical adsorption. The UV-Vis spectrum of DOX-CMG nanoparticles was used to confirm the loading of DOX onto CMG nanoparticles. […] DOX loading was confirmed by the presence of the characteristic absorbance peak of DOX-CMG at 485 nm (FIG. 12,b), which corresponded to the peak of free DOX (FIG. 12,c). The hydrodynamic diameter of DOX-loaded CMG nanoparticles was about 91 nm and was similar to the CMGs alone (FIGS. 5A-5F). The loading capacity of CMG nanoparticles for DOX was investigated by mixing a fixed concentration of CMG (2 mg/mL) with various initial DOX concentrations as shown in FIG. 13. […] The drug-release kinetics of DOX-CMG nanoparticles was determined at pH about 5.1 and about 7.4 (FIG. 14). […] To determine the effectiveness of the DOX-CMG nanoparticles in killing A549 cancer cells, cells were treated with DOX-CMG nanoparticles with increasing concentrations of DOX, or free DOX, for about 72 h and analyzed using the Presto Blue cell viability assay.

COc1cccc2c1C(=O)c1c(O)c3c(c(O)c1C2=O)C[C@@](O)(C(=O)CO)C[C@@H]3O[C@H]1C[C@H](N)[C@H](O)[C@H](C)O1 [DOX, doxorubicin]
subcellular localization of DOX: concentrated in the nuclei
